US10730882B2, “2-aminoquinazoline derivatives as P70S6 kinase inhibitors” (SENTINEL ONCOLOGY LIMITED, priority 2015, dated 2020)
Like-named read-outs stand apart in the source and are kept apart here.

Legend:
[1] = in vivo cassette mouse model: brain and plasma concentrations following oral dosing; conditions: male CD-1 mice, 2.5 mg/kg per compound; for Kp at 3 h: brain and plasma, read-out: (b) Brain:Plasma ratio at 3 hours
Procedure: (b) Evaluation of Brain and Plasma Concentrations in an In Vivo Cassette Mouse Model
The compounds of this invention were evaluated in an in vivo cassette mouse model to determine brain and plasma concentrations following oral dosing. This is an industry-standard and recognised means to assess brain penetration of small molecules (for recent literature article, refer to: in vitro permeability analysis, pharmacokinetic and brain distribution study in mice of imperatorin, isoimperatorin and cnidilin in Radix Angelicae Dahuricae, Fitoterapia, Volume 85, March 2013, Pages 144-153). It is also recognised that higher brain concentrations (and higher ratios of brain:plasma concentration) lead to greater exposure in the brain—this is clearly advantageous if the brain is the site of action.
For a single cassette study, male CD-1 mice were used (n=3 per timepoint, three timepoints: 1.0 hr, 3.0 hr and 8.0 hr).
5 compounds were dosed PO per cassette (dose level 2.5 mg/kg per compound, dose conc. 0.25 mg/ml, dose volume 10.0 ml/kg).
Formulation used to solubilize compounds: 10% DMSO/90% hydroxypropyl-β-cyclodextrin (20% w/v aqueous)
Sampling was terminal and plasma and brain matrices were generated. To prepare plasma samples, protein was precipitated using acetonitrile. To prepare brain samples, homogenisation and protein precipitation was performed with acetonitrile. Samples were analysed using HPLC-TOF MS using electrospray ionisation.
The brain and plasma concentrations and brain-plasma ratios observed for the compounds tested are set out in the table below.

[2] = test system: MDA-MB-231 cells; test: in vivo model of triple negative breast cancer (TNBC): tumour initiation and metastasis; parameters: species or system female athymic nude mice
Description: (c) Evaluation of Efficacy of Compounds in Counter-Acting Tumour Initiation and Metastasis in an In Vivo Model of Triple Negative Breast Cancer (TNBC)
It is known that S6K1 has a crucial role in the recurrence of TNBC cancers following surgery, mainly through the activity of S6K1 in promoting survival of cancer cells in the host via phosphorylation and activation of the anti-apoptotic protein Bcl2 and of Gli1 (Belletti 2014). In addition, S6K1 promotes metastasis of TNBC cells (Akar 2010, Hung 2014).
In order to test the efficacy of an inhibitor of S6K1 in an in vivo model of tumour initiation and metastasis, the following experiment was established:
A total of 22 female athymic nude mice (Hsd:Athymic Nude-Foxn1^nu) were purchased from Harlan (UK) and acclimatised for 7 days prior to study commencement. Animals were housed in IVC cages (5 per cage) with individual mice identified by ear punch. All animals were allowed free access to a standard certified commercial diet and sanitised water during the study. The holding room was maintained under standard conditions: 20-24° C., 40-70% humidity and a 12 h light/dark cycle.
On day −1, animals were randomly assigned to treatment groups as indicated in the table below, and drug treatment commenced. On day 0, MDA-MB-231 cells (1×10^6 in matrigel) were implanted into the second mammary fat pad.
The dosing route was PO and the formulation was as follows: 10% DMSO/90% hydroxypropyl-β-cyclodextrin (20% w/v aqueous).
During the experiment, the following outcome measures were assessed:
(1) Time to palpation of tumour (latency) (2) tumour volume (3) tumour and organ weights as a measure of metastasis (4) visual appearance of metastatic nodules in the lungs.
At necroscopy the lungs of the vehicle and treated animals were examined for presence of metastatic nodules: […]

[3] = test system: FXS mice (Fmr1 KO); test: audiogenic seizure assay (AGS), in vivo model of Fragile X Syndrome
Description: (d) Evaluation of Compounds in the Audiogenic Seizure Assay, an In Vivo Model of Fragile X Syndrome (FXS)
Seizures occur in conjunction with FXS and autism in up to one-quarter of children with these disorders (Berry-Kravis E (2002) Epilepsy in fragile X syndrome. Dev. Med. Child Neurol. 44(11):724-728). […] The audiogenic seizure assay (AGS) is a well-documented mouse model of FXS (Audiogenic seizures susceptibility in transgenic mice with fragile X syndrome, Epilepsia. 2000 January; 41(1):19-23). In such a model it is possible to dose compounds to observe effects on susceptibility of the mice to audiogenic seizures. The following AGS experiment was set up to test the efficacy of compounds of this application:
The following experiment design was used:
Strain of FXS mouse used: FVB background
Vehicle used: 10% DMSO/90% hydroxypropyl-β-cyclodextrin (20% w/v aqueous)
Animals were assessed in AGS following 7 consecutive days of dosing.
The experimental chamber consisted of a plastic cage of dimensions 25×25×47 cm in which a doorbell (Electrical bell Heath Zenith, model 172C-A) had been mounted on the cage roof.
Mice were taken from their housing room one by one and transferred into the experimental chamber and allowed to explore the novel environment (basal noise […]) for a period of 30 seconds after which point the bell was rung (124 dB) for a period of 60 seconds.
The resulting motor responses were classified using a scale modified from the one originally described by Jobe et al. (1973): no response (NR: pause or continuous exploration), wild running (WR), seizure (S) or respiratory arrest and/or death (RA). The motor response rate is defined as the percentage of animals per group responding to the stimulus.

[4] = target: p70S6K (h) (Homo sapiens (Human), UniProt P23443); test: p70S6K (h) kinase assay (radiometric, [γ-33P-ATP]); format: biochemical; conditions: read-out: (a) p70S6K1 IC50
Procedure: (a) Determination of p70S6 Inhibitory Activity
The ability of compounds of the invention to inhibit P70S6 kinase may be determined using the protocol below.
20 mM MOPS, 1 mM EDTA, 0.01% Brij-35, 5% Glycerol, 0.1% b-mercaptoethanol, 1 mg/mL BSA
In a final reaction volume of 25 μL, p70S6K (h) (5-10 mU) is incubated with 8 mM MOPS pH 7.0, 0.2 mM EDTA, 100 μM KKRNRTLTV, 10 mM Mg acetate and [γ-33P-ATP](specific activity approx. 500 cpm/pmol, concentration as required). The reaction is initiated by the addition of the MgATP mix. After incubation for 40 minutes at room temperature, the reaction is stopped by the addition of 5 μL of a 3% phosphoric acid solution. 10 μL of the reaction mixture is then spotted onto a P30 filtermat and washed three times for 5 minutes in 75 mM phosphoric acid and once in methanol prior to drying and scintillation counting.

[5] = brain, read-out: (b) Brain conc. at 3 hours
[6] = plasma, read-out: (b) Plasma conc. at 3 hours
[7] = mono-HCl salt, 100 mg/kg p.o. BID, 21 days, compared to control
[8] = FXS (Fmr1 KO) mice, n=10, 50 mg/kg QD x 7 PO, mono-HCl salt, bell 124 dB for 60 seconds
[9] = FXS mice, FVB background, following 7 consecutive days of dosing

Chain of p70S6K (h) (P23443 whole entry): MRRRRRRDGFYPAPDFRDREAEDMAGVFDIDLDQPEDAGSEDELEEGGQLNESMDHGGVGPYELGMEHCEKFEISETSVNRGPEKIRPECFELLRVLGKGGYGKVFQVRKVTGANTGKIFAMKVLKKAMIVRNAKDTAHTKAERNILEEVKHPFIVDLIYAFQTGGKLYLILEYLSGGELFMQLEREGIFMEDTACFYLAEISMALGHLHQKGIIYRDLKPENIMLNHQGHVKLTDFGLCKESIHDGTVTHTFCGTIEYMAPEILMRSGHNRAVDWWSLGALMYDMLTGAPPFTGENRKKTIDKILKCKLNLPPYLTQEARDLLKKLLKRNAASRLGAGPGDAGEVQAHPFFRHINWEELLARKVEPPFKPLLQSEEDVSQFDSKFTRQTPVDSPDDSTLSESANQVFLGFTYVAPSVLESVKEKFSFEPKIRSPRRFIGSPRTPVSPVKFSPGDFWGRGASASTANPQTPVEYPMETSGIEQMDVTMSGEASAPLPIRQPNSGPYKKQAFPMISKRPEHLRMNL

| Kp at 3 h [1] | concentration at 3 h [1, 5] [nM] | concentration at 3 h [1, 6] [nM] | IC50 [4] [nM] | Compound | Mean no. of lung nodules per animal ([2]; 100 mg/kg BID x 21, lungs examined at necroscopy, mono-HCl salt) | metastatic burden in the lungs ([2]; at necroscopy, spontaneous metastasis from a TNBC primary tumour) | tumour weight ([2]; day 21, mono-HCl salt, 100 mg/kg p.o. BID, compared to vehicle) | weight of liver ([2]; day 21, mono-HCl salt, 100 mg/kg p.o. BID, compared to vehicle treated group) | rate of incidence of tumour [2, 7] | time until appearance (palpation) of tumour [2, 7] | tumour volume [2, 7] | NR (no response: pause or continuous exploration), number of animals [3, 8] | RA (respiratory arrest and/or death), number of animals [3, 8] | S (seizure), number of animals [3, 8] | WR (wild running), number of animals [3, 8] | incidence of audiogenic seizures [3, 9] | severity of response (audiogenic seizure) [3, 9] |
| --- | --- | --- | --- | --- | --- | --- | --- | --- | --- | --- | --- | --- | --- | --- | --- | --- | --- |
| 4 | 2420 | 600 | 10 | C[C@@H](Nc1ncc2cc(-c3ncnc4[nH]ncc34)ccc2n1)c1ccc(F)c(F)c1 [Example 19, [(R)-1-(3,4-Difluoro-phenyl)-ethyl]-[6-(1H-pyrazolo[3,4-d]pyrimidin-4-yl)-quinazolin-2-yl]-amine] | – | – | – | – | – | – | – | – | – | – | – | – | – |
| 2.6 | 1070 | 420 | 15 | C[C@@H](Nc1ncc2cc(-c3ncnc4[nH]ncc34)ccc2n1)c1ccccc1F [Example 28, [(R)-1-(2-Fluoro-phenyl)-ethyl]-[6-(1H-pyrazolo[3,4-d]pyrimidin-4-yl)-quinazolin-2-yl]-amine] | – | – | – | – | – | – | – | – | – | – | – | – | – |

| Compound | Kp at 3 h [1] | concentration at 3 h [1, 5] [nM] | concentration at 3 h [1, 6] [nM] | IC50 [4] [nM] | Mean no. of lung nodules per animal ([2]; 100 mg/kg BID x 21, lungs examined at necroscopy, mono-HCl salt) | metastatic burden in the lungs ([2]; at necroscopy, spontaneous metastasis from a TNBC primary tumour) | tumour weight ([2]; day 21, mono-HCl salt, 100 mg/kg p.o. BID, compared to vehicle) | weight of liver ([2]; day 21, mono-HCl salt, 100 mg/kg p.o. BID, compared to vehicle treated group) | rate of incidence of tumour [2, 7] | time until appearance (palpation) of tumour [2, 7] | tumour volume [2, 7] | NR (no response: pause or continuous exploration), number of animals [3, 8] | RA (respiratory arrest and/or death), number of animals [3, 8] | S (seizure), number of animals [3, 8] | WR (wild running), number of animals [3, 8] | incidence of audiogenic seizures [3, 9] | severity of response (audiogenic seizure) [3, 9] |
| --- | --- | --- | --- | --- | --- | --- | --- | --- | --- | --- | --- | --- | --- | --- | --- | --- | --- |
| C[C@@H](Nc1ncc2cc(-c3ncnc4[nH]ncc34)ccc2n1)c1ccccc1 [Example 1, ((R)-1-Phenyl-ethyl)-[6-(1H-pyrazolo[3,4-d]pyrimidin-4-yl)-quinazolin-2-yl]-amine] | 2.7 | 1600 | 580 | 13 | 0 | effective in reducing the metastatic burden in the lungs | weighed significantly less | reduction in weight of liver | decreases the rate of incidence | delays time until appearance (palpation) of tumour | significant reduction in volume of tumours | 9 | 0 | 0 | 1 | reduced | reduced |
